Experimental data: patent publication US9546152B2 (MERCK SHARP & DOHME CORP., priority 2012, dated 2017)
Blank lines part the entries; values can stand above or below the molecule they belong to.

Assays:
[1] = molecular target: T1, human orexin-2 receptor (Homo sapiens (Human), UniProt O43614); assay: radioligand binding assay, orexin-2 receptor; conditions: membranes prepared from CHO cells expressing the OX2 receptor; read-out: hOX2R BIND hKi
Experimental: (§1) In a typical experiment the OX1 and OX2 receptor antagonistic activity of the compounds of the present invention was determined in accordance with the following experimental method. For intracellular calcium measurements, Chinese hamster ovary (CHO) cells expressing the rat orexin-1 receptor or the human orexin-2 receptor, are grown in Iscove's modified DMEM containing 2 mM L-glutamine, […], 1% hypoxanthine-thymidine supplement, 100 U/ml penicillin, 100 μg/ml streptomycin and 10% heat-inactivated fetal calf serum (FCS). The cells are seeded at 20,000 cells/well into Becton-Dickinson black 384-well clear bottom sterile plates coated with poly-D-lysine. All reagents were from GIBCO-Invitrogen Corp. The seeded plates are incubated overnight at 37° C. and 5% CO2. Ala-6,12 human orexin-A as the agonist is prepared as a 1 mM stock solution in 1% bovine serum albumin (BSA) and diluted in assay buffer (HBSS containing 20 mM HEPES, 0.1% BSA and 2.5 mM probenecid, pH7.4) for use in the assay at a final concentration of 70 pM. Test compounds are prepared as 10 mM stock solution in DMSO, then diluted in 384-well plates, first in DMSO, then assay buffer. On the day of the assay, cells are washed 3 times with 100 μl assay buffer and then incubated for 60 min (37° C., 5% CO2) in 60 μl assay buffer containing 1 μM Fluo-4AM ester, 0.02% pluronic acid, and 1% BSA. The dye loading solution is then aspirated and cells are washed 3 times with 100 μl assay buffer. 30 μl of that same buffer is left in each well. Within the Fluorescent Imaging Plate Reader (FLIPR, Molecular Devices), test compounds are added to the plate in a volume of 25 μl, incubated for 5 min and finally 25 μl of agonist is added. Fluorescence is measured for each well at 1 second intervals for 5 minutes and the height of each fluorescence peak is compared to the height of the fluorescence peak induced by 70 pM Ala-6,12 orexin-A with buffer in place of antagonist. […] Alternatively, compound potency can be assessed by a radioligand binding assay (described in Bergman et. al. Bioorg. Med. Chem. Lett. 2008, 18, 1425-1430) in which the inhibition constant (Ki) is determined in membranes prepared from CHO cells expressing either the OX1 or OX2 receptor. The intrinsic orexin receptor antagonist activity of a compound which may be used in the present invention may be determined by these assays.

[2] = molecular target: T1, human orexin-2 receptor; assay: FLIPR Ca2+ Flux Assay, orexin-2 receptor; type: cell-based; conditions: CHO cells expressing the human orexin-2 receptor; agonist 70 pM Ala-6,12 human orexin-A; read-out: hOX2R FLIPR IC50
Experimental: as §1

T1 sequence (O43614 whole entry): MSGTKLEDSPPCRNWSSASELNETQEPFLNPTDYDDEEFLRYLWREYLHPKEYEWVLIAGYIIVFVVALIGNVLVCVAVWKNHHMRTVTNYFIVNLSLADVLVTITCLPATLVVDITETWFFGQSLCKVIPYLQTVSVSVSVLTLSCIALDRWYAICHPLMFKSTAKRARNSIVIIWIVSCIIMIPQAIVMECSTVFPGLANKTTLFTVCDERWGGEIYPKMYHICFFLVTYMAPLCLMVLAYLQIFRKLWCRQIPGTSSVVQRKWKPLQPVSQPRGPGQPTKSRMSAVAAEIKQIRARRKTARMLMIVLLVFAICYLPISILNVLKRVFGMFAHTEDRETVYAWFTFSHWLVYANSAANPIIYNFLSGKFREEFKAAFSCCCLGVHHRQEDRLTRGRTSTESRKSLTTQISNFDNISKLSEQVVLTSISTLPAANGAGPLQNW

SMILES: Cc1c(C#N)ccnc1O[C@@H]1CC[C@@H](C)N(C(=O)c2ccc(Cl)cc2-n2nccn2)C1 [Example 4, 2-{[(3R,6R)-1-{[4-chloro-2-(2H-1,2,3-triazol-2-yl)phenyl]carbonyl}-6-methylpiperidin-3-yl]oxy}-3-methylpyridine-4-carbonitrile]
Ki [1]: 0.0004 µM
IC50 [2]: 0.012 µM

SMILES: COc1ccc(C(=O)N2C[C@H](Oc3nccc(C#N)c3C)CC[C@H]2C)c(C2CC2)n1 [Example 5, 2-({(3R,6R)-1-[(2-cyclopropyl-6-methoxypyridin-3-yl)carbonyl]-6-methylpiperidin-3-yl}oxy)-3-methylpyridine-4-carbonitrile]
Ki [1]: 0.0017 µM
IC50 [2]: 0.032 µM

SMILES: COc1ccc(C(=O)N2C[C@H](Oc3nccc(C#N)c3C)CC[C@H]2C)c(-n2nccn2)c1 [Example 7, 2-{[(3R,6R)-1-{[4-methoxy-2-(2H-1,2,3-triazol-2-yl)phenyl]carbonyl}-6-methylpiperidin-3-yl]oxy}-3-methylpyridine-4-carbonitrile]
Ki [1]: 0.0013 µM
IC50 [2]: 0.013 µM

SMILES: Cc1c(C#N)ccnc1O[C@@H]1CC[C@@H](C)N(C(=O)c2cccc(F)c2-n2nccn2)C1 [Example 12, 2-{[(3R,6R)-1-{[3-fluoro-2-(2H-1,2,3-triazol-2-yl)phenyl]carbonyl}-6-methylpiperidin-3-yl]oxy}-3-methylpyridine-4-carbonitrile]
Ki [1]: 0.001 µM
IC50 [2]: 0.012 µM

SMILES: Cc1c(C#N)ccnc1O[C@@H]1CC[C@@H](C)N(C(=O)c2c(F)cccc2-c2nccs2)C1 [Example 18, 2-{[(3R,6R)-1-{[2-fluoro-6-(1,3-thiazol-2-yl)phenyl]carbonyl}-6-methylpiperidin-3-yl]oxy}-3-methylpyridine-4-carbonitrile]
Ki [1]: 0.0001 µM
IC50 [2]: 0.007 µM

SMILES: Cc1c(C#N)ccnc1O[C@@H]1CC[C@@H](C)N(C(=O)c2sncc2-c2ccccc2)C1 [Example 20, 3-methyl-2-({(3R,6R)-6-methyl-1-[(4-phenylisothiazol-5-yl)carbonyl]piperidin-3-yl}oxy)pyridine-4-carbonitrile]
Ki [1]: 0.0152 µM
IC50 [2]: 0.089 µM

SMILES: Cc1c(C#N)ccnc1O[C@@H]1CC[C@@H](C)N(C(=O)c2ccccc2OC(C)C)C1 [Example 21, 3-methyl-2-{[(3R,6R)-6-methyl-1-{[2-(1-methylethoxy)phenyl]carbonyl}piperidin-3-yl]oxy}pyridine-4-carbonitrile]
Ki [1]: 0.0006 µM
IC50 [2]: 0.008 µM

SMILES: Cc1c(C#N)ccnc1O[C@@H]1CC[C@@H](C)N(C(=O)c2ccncc2-c2ccccc2)C1 [Example 23, 3-methyl-2-({(3R,6R)-6-methyl-1-[(3-phenylpyridin-4-yl)carbonyl]piperidin-3-yl}oxy)pyridine-4-carbonitrile]
Ki [1]: 0.0166 µM
IC50 [2]: 0.069 µM

SMILES: Cc1c(C#N)ccnc1O[C@@H]1CC[C@@H](C)N(C(=O)c2ccccc2-c2ncco2)C1 [Example 27, 3-methyl-2-{[(3R,6R)-6-methyl-1-{[2-(1,3-oxazol-2-yl)phenyl]carbonyl}piperidin-3-yl]oxy}pyridine-4-carbonitrile]
Ki [1]: 0.0003 µM
IC50 [2]: 0.017 µM

SMILES: Cc1c(C#N)ccnc1O[C@@H]1CC[C@@H](C)N(C(=O)c2ccccc2-c2cscn2)C1 [Example 33, 3-methyl-2-{[(3R,6R)-6-methyl-1-{[2-(1,3-thiazol-4-yl)phenyl]carbonyl}piperidin-3-yl]oxy}pyridine-4-carbonitrile]
Ki [1]: 0.0002 µM
IC50 [2]: 0.006 µM

Ki [1]: 0.0327 µM
SMILES: COc1ccc(C(=O)N2C[C@H](Oc3nccc(C#N)c3C)CC[C@H]2C)c(OC)n1 [Example 73, 2-({(3R,6R)-1-[(2,6-dimethoxypyridin-3-yl)carbonyl]-6-methylpiperidin-3-yl}oxy)-3-methylpyridine-4-carbonitrile]

Ki [1]: 0.0432 µM
SMILES: COc1cc(-n2nccn2)c(C(=O)N2C[C@H](Oc3nccc(C#N)c3C)CC[C@H]2C)cn1 [Example 85, 2-{[(3R,6R)-1-{[6-methoxy-4-(2H-1,2,3-triazol-2-yl)pyridin-3-yl]carbonyl}-6-methylpiperidin-3-yl]oxy}-3-methylpyridine-4-carbonitrile]
